In PubChem BioAssay AID1963429 (Molecular Pharmacology Branch, DTP, NCI, 2024):

System: 126254-015-R-J1-PDC complex spheroid growth, % test/control
Assay: Anticancer human tumor 126254-015-R-J1-PDC patient-derived soft tissue sarcoma cell line growth inhibition [Asc]
Settings: for IC50: curve of first compound; for viability, T/C: stronger effect = lower value
Procedure: Multicellular complex tumor spheroid response to apoptosis pathway targeting inhibitors Alrizomadlin, Pelcitoclax, and Dasminapant in combination with a variety of drugs and investigational agents in selected tumor cell lines
The MDM2 inhibitor alrizomadlin, the Bcl-2/Bcl-xL inhibitor pelcitoclax, and the IAPs inhibitor dasminapant were evaluated both individually and in combination with standard of care and investigational anticancer small molecules within a complex spheroid model of solid tumors. . Complex spheroids include a stromal component modeled by human endothelial cells (HUVEC) and fibroblasts modeled by human mesenchymal stem cells (MSCs). The concentration ranges selected for each drug and investigational agent were based upon clinically achievable concentrations if the clinical Cmax of the agent was known.
Compounds. The drugs and investigational agents: alrizomadlin (APG-115; NSC831270), pelcitoclax (APG-1252; NSC835773), dasminapant (APG-1387;NSC834197), TAK-243 (NSC785004), copanlisib (NSC809693), olaparib (NSC753686), talazoparib (NSC767125), cobimetinib (NSC 768068), eltanexor (KPT-8602, NSC 794443), abemaciclib (NSC 768073), sotorasib (NSC818433), adagrasib (NSC 831453), MRTX-1133 (NSC 836407), Iadademestat (ORY1001, NSC 806812), and RMC-4630 (NSC839698), were obtained from the NCI Developmental Therapeutics Program Chemical Repository. The FDA-approved anticancer drug set is available from the Developmental Therapeutics Program at https://dtp.cancer.gov/organization/dscb/obtaining/available plates.htm. […] The stock solutions were prepared in dimethyl sulfoxide (DMSO, Sigma-Aldrich, St. Louis, MO, cat. D2650) at 800-fold the tested concentration and stored at -70 degrees C prior to their use. All drugs and investigational agents were tested over a range starting from a high concentration at or near the clinical Cmax and decreasing in half-log increments. If the clinical Cmax for an agent had not been determined, the highest concentration tested was 10 microM.
The patient-derived cancer (PDC) cell lines include five colon adenocarcinomas: 186277-243-T-J2-PDC, 616215-338-R-J1-PDC, 439559-082-T-J2-PDC, 463943-066-T-J2-PDC, and 519858-162-T-J1-PDC; three pancreatic carcinomas: 323965-272-R-J2-PDC, 521955-158-R6-J3-PDC, and 521955-158-R2-J5-PDC; two uterine sarcomas: 327498-152-R-J2-PDC and 993429-296-R-J1-PDC; two rhabdomyosarcomas: 755483-174-R-J1-PDC and 772245-204-R-J1-PDC; two soft tissue sarcomas: 126254-015-R-J1-PDC and 494315-158-R-J1-PDC; two malignant fibrous histiocytomas: 317291-083-R-J1-PDC and 596521-263-R-J1-PDC; two breast carcinomas: 171881-019-R-J1-PDC and 885512-296-R-J2-PDC; and one ovarian carcinoma: 6556581-035-R-J-PDC were obtained from the NCI PDMR, (https://pdmr.cancer.gov). The established cell lines HSSY-2 synovial sarcoma (RRID:CVCL 8719), SYO-1 synovial sarcoma (RRID:CVCL_7146), MPNST malignant peripheral neural sheath tumor were obtained from the Sloan Kettering Institute. The following established cell lines were purchased from the American Type Culture Collection (ATCC, Manassas, VA), Sor the received from the NCI repository:, PANC-1 pancreatic carcinoma (CRL-1469, RRID:CVCL_0480), OVCAR-5 ovarian carcinoma (RRID:CVCL_1628), OVCAR-8 ovarian carcinoma (RRID:CVCL_1629), , MCF-7 breast carcinoma (CRL-12584, RRID:CVCL_0031), MDA-MB-231 breast carcinoma (CRL-12532, RRID:CVCL_0062), NCI-H1876 small cell lung carcinoma (CRL-5902, RRID:CVCL_1503), NCI-H510A small cell lung carcinoma (HTB-184, RRID:CVCL_1565), NCI-H1417 (CRL-5869, RRID:CVCL_1469), and NCI-H196 small cell lung carcinoma (CRL-5823, RRID:CVCL_1509). Dr. Peter Houghton (Greehey Children's Cancer Research Institute, University of Texas Health Science Center, San Antonio, TX) provided Rh-18 rhabdomyosarcoma (RRID:CVCL_1659). Pooled donor human umbilical vein endothelial cells (HUVEC, Lonza, cat. CC-2519) and human mesenchymal stem cells (hMSC, Lonza, cat. PT-2501) were purchased from Lonza (Walkersville, MD).
Cell Culture. […]
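Note: spheroids exposed to compound for seven days.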
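Throughout, for viability, T/C: 100% = DMSO vehicle control wells.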

Q: With `CCN1CCN(Cc2ccc(Nc3ncc(F)c(-c4cc(F)c5nc(C)n(C(C)C)c5c4)n3)nc2)CC1` + CCN1C(C(=O)NC23CCC(C(=O)O)(CC2)CC3)C(c2cccc(Cl)c2F)C2(C(=O)Nc3cc(Cl)ccc32)C12CCCCC2 as the compound, how does the IC50 (second compound 0.03 µM) read?
A: Its IC50 is > 1 µM.

Q: What about the IC50 (second compound 0.0949 µM) of the same compound?
A: The IC50 was > 1 µM.

Q: What about the IC50 (second compound 0.3 µM) of the same compound?
A: The IC50 was > 1 µM.

Q: And the IC50 (second compound 0.949 µM)?
A: The IC50 was > 1 µM.

Q: And the IC50 (second compound 3 µM)?
A: The IC50 was > 1 µM.

Q: What about the viability, T/C (second compound 0.03 µM, first compound 0.00316 µM) of the same compound?
A: Its viability, T/C is 87.6%.

Q: And the viability, T/C (second compound 0.03 µM, first compound 0.01 µM)?
A: Its viability, T/C is 93.2%.

Q: And the viability, T/C (second compound 0.03 µM, first compound 0.0316 µM)?
A: Its viability, T/C is 99.5%.

Q: And the viability, T/C (second compound 0.03 µM, first compound 0.1 µM)?
A: The viability, T/C was 91.3%.

Q: And the viability, T/C (second compound 0.03 µM, first compound 0.316 µM)?
A: The viability, T/C was 105%.

Q: And the viability, T/C (second compound 0.03 µM, first compound 1 µM)?
A: The viability, T/C was 109%.

Q: What about the viability, T/C (second compound 0.0949 µM, first compound 0.00316 µM) of the same compound?
A: Its viability, T/C is 91.2%.

Q: And the viability, T/C (second compound 0.0949 µM, first compound 0.01 µM)?
A: Its viability, T/C is 94.9%.

Q: And the viability, T/C (second compound 0.0949 µM, first compound 0.0316 µM)?
A: Its viability, T/C is 97%.

Q: What about the viability, T/C (second compound 0.0949 µM, first compound 0.1 µM) of the same compound?
A: Its viability, T/C is 102%.

Q: What about the viability, T/C (second compound 0.0949 µM, first compound 0.316 µM) of the same compound?
A: The viability, T/C was 91.3%.

Q: What about the viability, T/C (second compound 0.0949 µM, first compound 1 µM) of the same compound?
A: The viability, T/C was 109%.

Q: And the viability, T/C (second compound 0.3 µM, first compound 0.00316 µM)?
A: The viability, T/C was 89%.

Q: And the viability, T/C (second compound 0.3 µM, first compound 0.01 µM)?
A: Its viability, T/C is 96.9%.

Q: What about the viability, T/C (second compound 0.3 µM, first compound 0.0316 µM) of the same compound?
A: The viability, T/C was 96.6%.

Q: What about the viability, T/C (second compound 0.3 µM, first compound 0.1 µM) of the same compound?
A: The viability, T/C was 89.8%.

Q: What about the viability, T/C (second compound 0.3 µM, first compound 0.316 µM) of the same compound?
A: The viability, T/C was 101%.

Q: And the viability, T/C (second compound 0.3 µM, first compound 1 µM)?
A: The viability, T/C was 105%.

Q: What about the viability, T/C (second compound 0.949 µM, first compound 0.00316 µM) of the same compound?
A: Its viability, T/C is 99.5%.

Q: What about the viability, T/C (second compound 0.949 µM, first compound 0.01 µM) of the same compound?
A: Its viability, T/C is 98.3%.

Q: And the viability, T/C (second compound 0.949 µM, first compound 0.0316 µM)?
A: Its viability, T/C is 92.2%.

Q: And the viability, T/C (second compound 0.949 µM, first compound 0.1 µM)?
A: Its viability, T/C is 88.8%.

Q: What about the viability, T/C (second compound 0.949 µM, first compound 0.316 µM) of the same compound?
A: The viability, T/C was 122%.

Q: What about the viability, T/C (second compound 0.949 µM, first compound 1 µM) of the same compound?
A: The viability, T/C was 113%.

Q: And the viability, T/C (second compound 3 µM, first compound 0.00316 µM)?
A: The viability, T/C was 96.1%.

Q: And the viability, T/C (second compound 3 µM, first compound 0.01 µM)?
A: Its viability, T/C is 93.8%.

Q: And the viability, T/C (second compound 3 µM, first compound 0.0316 µM)?
A: Its viability, T/C is 96.3%.

Q: What about the viability, T/C (second compound 3 µM, first compound 0.1 µM) of the same compound?
A: Its viability, T/C is 94.7%.

Q: What about the viability, T/C (second compound 3 µM, first compound 0.316 µM) of the same compound?
A: The viability, T/C was 106%.

Q: And the viability, T/C (second compound 3 µM, first compound 1 µM)?
A: Its viability, T/C is 104%.

Q: For `O=C(c1cc(Cc2n[nH]c(=O)c3ccccc23)ccc1F)N1CCN(C(=O)C2CC2)CC1` + Cc1c(S(C)(=O)=O)c(-c2cc(F)cc(N3CCN(c4ccc(NS(=O)(=O)c5ccc(NC(CCN6CCC(C(=O)OCCCP(=O)(O)O)CC6)CSc6ccccc6)c(S(=O)(=O)C(F)(F)F)c5)cc4)CC3)c2)c(-c2ccc(Cl)cc2)n1C(C)C, which IC50 (second compound 0.1 µM) is on record?
A: Its IC50 is > 10 µM.

Q: And the IC50 (second compound 0.316 µM)?
A: The IC50 was 9.75 µM.

Q: What about the IC50 (second compound 1 µM) of the same compound?
A: The IC50 was 7.04 µM.

Q: What about the IC50 (second compound 3.16 µM) of the same compound?
A: The IC50 was 5.75 µM.

Q: And the IC50 (second compound 10 µM)?
A: The IC50 was > 10 µM.

Q: What about the viability, T/C (second compound 0.1 µM, first compound 0.0316 µM) of the same compound?
A: Its viability, T/C is 77.8%.

Q: And the viability, T/C (second compound 0.1 µM, first compound 0.1 µM)?
A: Its viability, T/C is 81.8%.

Q: What about the viability, T/C (second compound 0.1 µM, first compound 0.316 µM) of the same compound?
A: The viability, T/C was 80%.

Q: And the viability, T/C (second compound 0.1 µM, first compound 1 µM)?
A: The viability, T/C was 71.8%.

Q: What about the viability, T/C (second compound 0.1 µM, first compound 3.16 µM) of the same compound?
A: Its viability, T/C is 66.8%.

Q: And the viability, T/C (second compound 0.1 µM, first compound 10 µM)?
A: Its viability, T/C is 56.2%.

Q: And the viability, T/C (second compound 0.316 µM, first compound 0.0316 µM)?
A: Its viability, T/C is 87.3%.

Q: What about the viability, T/C (second compound 0.316 µM, first compound 0.1 µM) of the same compound?
A: Its viability, T/C is 79.3%.

Q: What about the viability, T/C (second compound 0.316 µM, first compound 0.316 µM) of the same compound?
A: The viability, T/C was 80.2%.

Q: What about the viability, T/C (second compound 0.316 µM, first compound 1 µM) of the same compound?
A: The viability, T/C was 67.6%.

Q: What about the viability, T/C (second compound 0.316 µM, first compound 3.16 µM) of the same compound?
A: The viability, T/C was 73.9%.

Q: And the viability, T/C (second compound 0.316 µM, first compound 10 µM)?
A: The viability, T/C was 47.8%.

Q: And the viability, T/C (second compound 1 µM, first compound 0.0316 µM)?
A: The viability, T/C was 77%.

Q: And the viability, T/C (second compound 1 µM, first compound 0.1 µM)?
A: Its viability, T/C is 72.8%.

Q: What about the viability, T/C (second compound 1 µM, first compound 0.316 µM) of the same compound?
A: Its viability, T/C is 65.7%.

Q: And the viability, T/C (second compound 1 µM, first compound 1 µM)?
A: The viability, T/C was 71.3%.

Q: What about the viability, T/C (second compound 1 µM, first compound 3.16 µM) of the same compound?
A: Its viability, T/C is 58.1%.

Q: What about the viability, T/C (second compound 1 µM, first compound 10 µM) of the same compound?
A: Its viability, T/C is 45.8%.

Q: What about the viability, T/C (second compound 3.16 µM, first compound 0.0316 µM) of the same compound?
A: The viability, T/C was 75%.

Q: What about the viability, T/C (second compound 3.16 µM, first compound 0.1 µM) of the same compound?
A: Its viability, T/C is 68.7%.

Q: And the viability, T/C (second compound 3.16 µM, first compound 0.316 µM)?
A: The viability, T/C was 74.5%.

Q: What about the viability, T/C (second compound 3.16 µM, first compound 1 µM) of the same compound?
A: The viability, T/C was 65.5%.

Q: And the viability, T/C (second compound 3.16 µM, first compound 3.16 µM)?
A: Its viability, T/C is 59.2%.

Q: And the viability, T/C (second compound 3.16 µM, first compound 10 µM)?
A: Its viability, T/C is 41.8%.

Q: What about the viability, T/C (second compound 10 µM, first compound 0.0316 µM) of the same compound?
A: The viability, T/C was 75.9%.

Q: What about the viability, T/C (second compound 10 µM, first compound 0.1 µM) of the same compound?
A: The viability, T/C was 80.5%.

Q: What about the viability, T/C (second compound 10 µM, first compound 0.316 µM) of the same compound?
A: The viability, T/C was 72.1%.

Q: What about the viability, T/C (second compound 10 µM, first compound 1 µM) of the same compound?
A: The viability, T/C was 70.6%.

Q: What about the viability, T/C (second compound 10 µM, first compound 3.16 µM) of the same compound?
A: The viability, T/C was 60.6%.

Q: And the viability, T/C (second compound 10 µM, first compound 10 µM)?
A: Its viability, T/C is 55.3%.
